Laboratory results as given in publication PMC8402609, “Guiding the Immune Response to a Conserved Epitope in MSP2, an Intrinsically Disordered Malaria Vaccine Candidate” (Vaccines, 2021).
Where two headings read alike, the source gives them in different places. Where a SMILES comes first, the peptide text is derived from it. Bridges are numbered along the chain shown (N, C = ends).

What was measured:
[1] = system: biotinylated 13-residue peptides (A-I) spanning the C-terminal region of MSP2; experiment: Fine specificity of antisera by peptide array ELISA (peptides A-I); type: in vivo, mouse; conditions: individual sera of mice immunised with peptide-KLH conjugate or MSP2 mix, diluted 1:1000; indirect ELISA; peptides C-D span 9H4 epitope, E-G span 4D11 epitope
Description: Peptide was conjugated to maleimide-activated KLH (Sigma-Aldrich) following the manufacturer’s protocol. Briefly, 1 mg of each peptide was mixed with 1 mg KLH in the provided buffer for a 200-fold molar excess of peptide to carrier protein. The reaction mixture was degassed under nitrogen and mixed at room temperature (RT) for 2 h. Any unreacted peptide was removed by dialysis against PBS using a 10 kDa cut-off membrane. The extent of conjugation was determined using Ellman’s reagent. Peptide-KLH conjugate stock solution was stored at 4 °C until further use. Prior to immunisation, peptide-KLH conjugates were diluted to 1 mg/mL in PBS and formulated with Montanide ISA720 at an antigen:adjuvant ratio of 3:7 and a final concentration of 0.3 mg/mL. The 3D7 + FC27 MSP2 mix was formulated using 0.15 mg/mL of each allelic form. Female C57BL/6 mice (n = 6 per group) were inoculated subcutaneously with 100 µL containing 30 µg of antigen at weeks 0, 4 and 8, then euthanised at week 10. Sera were collected and stored at −80 °C.
To determine peptide-KLH binding to 4D11 and 9H4, Maxisorp 96-well microtitre plates (Nunc, Rochester, NY, USA) were coated overnight at 4 °C with 2 µg/mL peptide-KLH in PBS. The plates were blocked with 1% BSA in PBS for 1 h before adding 100 µL of 4D11 and 9H4 IgG in eleven half log10 serial dilutions starting from stock at 1 µg/mL. After 1 h incubation at 4 °C and washing, antigen-bound antibodies were detected with goat anti-mouse IgG (1:2000 dilution) and freshly prepared 2,2-azinobis(3-ethylbenzthiazolinesulfonic acid (ABTS) substrate (1 mm) in citric acid buffer, pH 4.2, containing […]. The absorbance was read at 405 nm using a microplate reader. For determination of peptide-specific antibody titres, peptide-BSA conjugate was coated on the plate at 2 µg/mL. Individual mouse sera were added at a starting dilution of 1000-fold with six half log10 serial dilutions. Endpoint titres were taken as the x-axis intercept of the dilution curve at an absorbance value of three standard deviations (s.d.) greater than OD405 for naïve mouse serum. The fine specificities of the antisera were determined by ELISA using an array of nine biotinylated 13-residue peptides (A-I), which overlap by 2 or 3 residues and spanned the C-terminal region of MSP2 [11, 13]. Maxisorp 96-well microtitre plates (Nunc) were coated overnight at 4 °C with 1 µg/mL streptavidin in PBS. The plates were blocked with 1% BSA in PBS for 2 h before adding 1:500 biotinylated peptides. Individual sera samples were diluted 1:1000 in blocking solution before addition to the peptide array. Antibody was detected with the same protocol as mentioned above.
To characterise the response against these dimeric peptides further, the specificity of the induced antibodies was determined by indirect ELISA using an array of nine biotinylated peptides that spanned the epitopes recognised by the 4D11 and 9H4 mAbs (peptides A-I) (Table 3). Peptides C and D spanned the 9H4 epitope, whilst peptides E to G spanned the 4D11 epitope. […] However, the response against MSP2 was largely dominated by a single mouse in the group.

3D7 merozoites = experiment: Merozoite ELISA with pooled mouse sera, 3D7 merozoites; type: in vivo, P. falciparum; conditions: pooled sera of immunised mice, two-fold dilutions from 1:500; merozoites 1 × 10^7/well; OD 450 nm; rank order in words
Description: The reactivity of mouse polyclonal antibodies with merozoites was determined by ELISA using merozoites from both the 3D7 and FC27 (D10 clone) strains of P. falciparum. The parasites were cultured in human erythrocytes at a haematocrit of 3% in RPMI media supplemented with […]. Viable merozoites were isolated as described previously. Highly synchronised late-stage schizonts were magnet-purified via a MACS magnet separation column (Miltenyi Biotec, Macquarie Park, Australia) and treated with E64 protease inhibitor (ThermoFisher Scientific, Scoresby, Australia) until mature merozoites were formed. Merozoites were released forcing them through a 1.2 µm filter.
Purified whole merozoites were resuspended in PBS supplemented with a cocktail of protease inhibitors (Roche, Castle Hill, Australia). Isolated merozoites were used to coat Nunc Maxisorp™ plates at 1 × 10^7/well and incubated overnight at 4 °C. The plates were then blocked with 1% casein in PBS at 37 °C for 2 h (or overnight at 4 °C). Pooled sera samples were added to wells at two-fold serial dilution in duplicate with a starting dilution of 1:500 and incubated at RT for 1 h. The plates were further incubated with HRP-conjugated goat anti-mouse IgG antibody diluted at 1:1000 in 0.1% casein in PBS at RT for 1 h. The plates were washed six times with PBS between each incubation step. Finally, 3,3′,5,5′-tetramethylbenzidine (TMB) substrate (Thermo Fisher Scientific, Scoresby, Australia) was added to the wells for the development of colour for 15 min and the reaction was stopped with 1 M sulfuric acid. The OD was measured at 450 nm.
The ability to induce an immune response that can recognise parasite MSP2 is essential in the design of an MSP2-based peptide vaccine. We isolated merozoites from both 3D7 and FC27 (D10 clone) strains of P. falciparum, coated them on ELISA plates and probed them with sera from the immunised mice (Figure 6). mAb 4D11 and the MSP2 mix pre-bleed were also included as positive and negative controls, respectively.

4D11 IgG = experiment: SPR competition binding assay, mAb 4D11; parameters: species or system mouse; conditions: read-out: Kd against 4D11 IgG
Description: (§1) Affinities for peptide epitopes and dimer peptides to 4D11 and 9H4 IgG were measured by surface plasmon resonance (SPR) (Biacore T200, GE Healthcare, Parramatta, Australia) using a competition assay method developed previously. First, 3D7 MSP2 was immobilised on a CM5 chip. To determine binding, eight three-fold dilutions of peptide, from 10 µM stock were added with 50 nM 4D11/9H4 IgG to compete with the immobilised antigen. A standard curve was established by flowing eight two-fold dilutions of 4D11 or 9H4 IgG from a 100 nM stock solution.
Following the MD simulations, each peptide was synthesised by standard Fmoc synthesis. Orthogonal protection of cysteines was used to ensure that the desired disulfide bond was formed, leaving a single free cysteine for conjugation to an appropriate carrier for immunisation. […] Consequently, disulfide bond formation and cyclisation coupling were performed in solution. To determine if the additions incorporated into the dimer sequence hindered binding to 4D11, SPR was used to measure their binding affinity to the mAb (Table 2). […] For immunisations, the commonly used carrier protein, keyhole limpet hemocyanin (KLH) was chosen. As conjugation to KLH required a free thiol, an additional cysteine residue was included in all of the peptides (Figure 2).

9H4 IgG = experiment: SPR competition binding assay, mAb 9H4; parameters: species or system mouse; conditions: SPR competition assay (Biacore T200); 3D7 MSP2 immobilised on CM5 chip; eight three-fold dilutions of peptide from 10 µM with 50 nM 9H4 IgG; alanine scan of 16-residue MSP2_207–222; read-out: Kd against 9H4 IgG
Description: as §1
In our previous work, the minimal epitope and key residues involved in 4D11 binding were defined as the 8-residue peptide 3D7-MSP2_215–222, with Lys216, Glu217 and Asn218 crucial for binding. To characterise the epitope of 9H4 and compare it with that of 4D11, the same alanine-scan peptides were used to probe 9H4 binding (Figure 1A,B). Affinities for 9H4 binding were measured by SPR, using a competition binding assay described previously.

[2] = SPR competition binding assay, peptides for KLH conjugation (Table 2), 3D7 MSP2 on CM5 chip, 50 nM 4D11 IgG
[3] = SPR competition assay (Biacore T200), 3D7 MSP2 immobilised on CM5 chip, eight three-fold dilutions of peptide from 10 µM with 50 nM 4D11 IgG, alanine scan of 16-residue MSP2_207–222

| Compound | specificity of the induced antibodies (peptide array A-I) [1] | reactivity of pooled sera with 3D7 merozoites (3D7 merozoites) | Kd (4D11 IgG; [2]) [nM] | Kd (9H4 IgG) [µM] | Kd (4D11 IgG; [3]) [nM] |
| --- | --- | --- | --- | --- | --- |
| CC(=O)N[C@@H](CO)C(=O)N[C@@H](CCC(N)=O)C(=O)N[C@@H](CCCCN)C(=O)N[C@@H](CCC(=O)O)C(=O)N[C@H]1CSSC[C@@H](C(=O)NCC(=O)N[C@@H](C)C(=O)N[C@@H](C)C(=O)N[C@@H](CS)C(N)=O)NC(=O)[C@H](CC(N)=O)NC(=O)[C@H](CCC(=O)O)NC(=O)[C@H](CCCCN)NC(=O)[C@H](CC(N)=O)NC(=O)CNC(=O)[C@H](CC(=O)O)NC(=O)[C@H]([C@@H](C)O)NC1=O [Peptide A1] (Ac-SQKECTDGNKENCGAAC-NH2; disulfide 5-13) | primarily against peptides C and D | followed by K209A, A1, C1 and L1 | 200 |  |  |
| C[C@@H]1NC(=O)CNC(=O)[C@@H]2CSSC[C@H](NC(=O)[C@H](CC(N)=O)NC(=O)[C@H](CCC(=O)O)NC(=O)[C@H](CCCCN)NC(=O)[C@H](CC(N)=O)NC(=O)CNC(=O)[C@H](C)NC1=O)C(=O)NCC(=O)N[C@@H](C)C(=O)N[C@@H](C)C(=O)N[C@@H](CS)C(=O)N[C@@H](CC(N)=O)C(=O)N[C@@H](CCCCN)C(=O)N[C@@H](CCC(=O)O)C(=O)N[C@@H](CC(N)=O)C(=O)N2 [Peptide C1] (cyclo(NKENCGAAGNKENCGAAC); disulfide 5-14) | almost exclusively directed to the 4D11 epitope | followed by K209A, A1, C1 and L1 | 440 |  |  |
| CC(=O)N[C@@H](CO)C(=O)N[C@@H](CCC(N)=O)C(=O)N[C@@H](C)C(=O)N[C@@H](CCC(=O)O)C(=O)N[C@H]1CSSC[C@@H](C(=O)NCC(=O)N[C@@H](C)C(=O)N[C@@H](C)C(N)=O)NC(=O)[C@H](CC(N)=O)NC(=O)[C@H](CCC(=O)O)NC(=O)[C@H](CCCCN)NC(=O)[C@H](CC(N)=O)NC(=O)CNC(=O)[C@H](CC(=O)O)NC(=O)[C@H]([C@@H](C)O)NC1=O [Peptide K209A] (Ac-SQAECTDGNKENCGAA-NH2; disulfide 5-13) | shifted antibody recognition towards the 4D11-specific epitope represented by peptides E and F | followed by K209A, A1, C1 and L1 | 200 | 7.3 | 300 |
| CC(=O)N[C@@H](CC(N)=O)C(=O)N[C@@H](CCCCN)C(=O)N[C@@H](CCC(=O)O)C(=O)N[C@@H](CC(N)=O)C(=O)N[C@H]1CSSC[C@@H](C(=O)NCC(=O)N[C@@H](C)C(=O)N[C@@H](C)C(=O)N[C@@H](CS)C(N)=O)NC(=O)[C@H](CC(N)=O)NC(=O)[C@H](CCC(=O)O)NC(=O)[C@H](CCCCN)NC(=O)[C@H](CC(N)=O)NC(=O)CNC(=O)[C@H](C)NC(=O)[C@H](C)NC(=O)CNC1=O [Peptide L1] (Ac-NKENCGAAGNKENCGAAC-NH2; disulfide 5-14) | almost exclusively directed to the 4D11 epitope | followed by K209A, A1, C1 and L1 | 470 |  |  |
| CC(=O)N[C@@H](CO)C(=O)N[C@@H](CCC(N)=O)C(=O)N[C@@H](CCCCN)C(=O)N[C@@H](CCC(=O)O)C(=O)N[C@H]1CSSC[C@@H](C(=O)NCC(=O)N[C@@H](C)C(=O)N[C@@H](C)C(N)=O)NC(=O)[C@H](CC(N)=O)NC(=O)[C@H](CCC(=O)O)NC(=O)[C@H](CCCCN)NC(=O)[C@H](CC(N)=O)NC(=O)CNC(=O)[C@H](CC(=O)O)NC(=O)[C@H](C)NC1=O [Peptide T212A] (Ac-SQKECADGNKENCGAA-NH2; disulfide 5-13) |  |  |  | 4.8 | 500 |
